From BigSolDB 2.1

## OC[C@@H](O)CN1CCN(c2ccccc2)CC1
In ethyl acetate, 283.1 K
  solubility (mole fraction): 0.000375
In ethyl acetate, 288.1 K
  solubility (mole fraction): 0.000529
In ethyl acetate, 293.1 K
  solubility (mole fraction): 0.000655
In ethyl acetate, 298.1 K
  solubility (mole fraction): 0.000809
In ethyl acetate, 303.1 K
  solubility (mole fraction): 0.00104
In ethyl acetate, 308.1 K
  solubility (mole fraction): 0.00132
In ethyl acetate, 313.1 K
  solubility (mole fraction): 0.00172
In ethyl acetate, 318.1 K
  solubility (mole fraction): 0.00229
In ethyl acetate, 323.1 K
  solubility (mole fraction): 0.00299
In isobutanol, 283.1 K
  solubility (mole fraction): 0.000871
In isobutanol, 288.1 K
  solubility (mole fraction): 0.00116
In isobutanol, 293.1 K
  solubility (mole fraction): 0.00147
In isobutanol, 298.1 K
  solubility (mole fraction): 0.00194
In isobutanol, 303.1 K
  solubility (mole fraction): 0.00245
In isobutanol, 308.1 K
  solubility (mole fraction): 0.00311
In isobutanol, 313.1 K
  solubility (mole fraction): 0.00397
In isobutanol, 318.1 K
  solubility (mole fraction): 0.0052
In isobutanol, 323.1 K
  solubility (mole fraction): 0.00686
In isopentanol, 283.1 K
  solubility (mole fraction): 0.000649
In isopentanol, 288.1 K
  solubility (mole fraction): 0.000914
In isopentanol, 293.1 K
  solubility (mole fraction): 0.00126
In isopentanol, 298.1 K
  solubility (mole fraction): 0.00165
In isopentanol, 303.1 K
  solubility (mole fraction): 0.00209
In isopentanol, 308.1 K
  solubility (mole fraction): 0.00274
In isopentanol, 313.1 K
  solubility (mole fraction): 0.00358
In isopentanol, 318.1 K
  solubility (mole fraction): 0.00472
In isopentanol, 323.1 K
  solubility (mole fraction): 0.00611
In isopropanol, 283.1 K
  solubility (mole fraction): 0.000146
In isopropanol, 288.1 K
  solubility (mole fraction): 0.000195
In isopropanol, 293.1 K
  solubility (mole fraction): 0.000245
In isopropanol, 298.1 K
  solubility (mole fraction): 0.000302
In isopropanol, 303.1 K
  solubility (mole fraction): 0.000371
In isopropanol, 308.1 K
  solubility (mole fraction): 0.000462
In isopropanol, 313.1 K
  solubility (mole fraction): 0.00057
In isopropanol, 318.1 K
  solubility (mole fraction): 0.000705
In isopropanol, 323.1 K
  solubility (mole fraction): 0.000852
In isopropyl acetate, 283.1 K
  solubility (mole fraction): 0.000293
In isopropyl acetate, 288.1 K
  solubility (mole fraction): 0.000371
In isopropyl acetate, 293.1 K
  solubility (mole fraction): 0.000484
In isopropyl acetate, 298.1 K
  solubility (mole fraction): 0.000609
In isopropyl acetate, 303.1 K
  solubility (mole fraction): 0.000798
In isopropyl acetate, 308.1 K
  solubility (mole fraction): 0.00102
In isopropyl acetate, 313.1 K
  solubility (mole fraction): 0.00132
In isopropyl acetate, 318.1 K
  solubility (mole fraction): 0.00172
In isopropyl acetate, 323.1 K
  solubility (mole fraction): 0.00223
In n-butanol, 283.1 K
  solubility (mole fraction): 0.000527
In n-butanol, 288.1 K
  solubility (mole fraction): 0.00072
In n-butanol, 293.1 K
  solubility (mole fraction): 0.000956
In n-butanol, 298.1 K
  solubility (mole fraction): 0.00131
In n-butanol, 303.1 K
  solubility (mole fraction): 0.00175
In n-butanol, 308.1 K
  solubility (mole fraction): 0.00239
In n-butanol, 313.1 K
  solubility (mole fraction): 0.00318
In n-butanol, 318.1 K
  solubility (mole fraction): 0.00424
In n-butanol, 323.1 K
  solubility (mole fraction): 0.00579
In n-butyl acetate, 283.1 K
  solubility (mole fraction): 0.00032
In n-butyl acetate, 288.1 K
  solubility (mole fraction): 0.000417
In n-butyl acetate, 293.1 K
  solubility (mole fraction): 0.000551
In n-butyl acetate, 298.1 K
  solubility (mole fraction): 0.000714
In n-butyl acetate, 303.1 K
  solubility (mole fraction): 0.000937
In n-butyl acetate, 308.1 K
  solubility (mole fraction): 0.00122
In n-butyl acetate, 313.1 K
  solubility (mole fraction): 0.00156
In n-butyl acetate, 318.1 K
  solubility (mole fraction): 0.00207
In n-butyl acetate, 323.1 K
  solubility (mole fraction): 0.00266
In n-heptanol, 283.1 K
  solubility (mole fraction): 0.000771
In n-heptanol, 288.1 K
  solubility (mole fraction): 0.00104
In n-heptanol, 293.1 K
  solubility (mole fraction): 0.00135
In n-heptanol, 298.1 K
  solubility (mole fraction): 0.0018
In n-heptanol, 303.1 K
  solubility (mole fraction): 0.0023
In n-heptanol, 308.1 K
  solubility (mole fraction): 0.00297
In n-heptanol, 313.1 K
  solubility (mole fraction): 0.00381
In n-heptanol, 318.1 K
  solubility (mole fraction): 0.00492
In n-heptanol, 323.1 K
  solubility (mole fraction): 0.00628
In n-hexanol, 283.1 K
  solubility (mole fraction): 0.000816
In n-hexanol, 288.1 K
  solubility (mole fraction): 0.00108
In n-hexanol, 293.1 K
  solubility (mole fraction): 0.00139
In n-hexanol, 298.1 K
  solubility (mole fraction): 0.00181
In n-hexanol, 303.1 K
  solubility (mole fraction): 0.00235
In n-hexanol, 308.1 K
  solubility (mole fraction): 0.00304
In n-hexanol, 313.1 K
  solubility (mole fraction): 0.00393
In n-hexanol, 318.1 K
  solubility (mole fraction): 0.00503
In n-hexanol, 323.1 K
  solubility (mole fraction): 0.00651
In n-pentanol, 283.1 K
  solubility (mole fraction): 0.000634
In n-pentanol, 288.1 K
  solubility (mole fraction): 0.000945
In n-pentanol, 293.1 K
  solubility (mole fraction): 0.00128
In n-pentanol, 298.1 K
  solubility (mole fraction): 0.00163
In n-pentanol, 303.1 K
  solubility (mole fraction): 0.00217
In n-pentanol, 308.1 K
  solubility (mole fraction): 0.00285
In n-pentanol, 313.1 K
  solubility (mole fraction): 0.00372
In n-pentanol, 318.1 K
  solubility (mole fraction): 0.00493
In n-pentanol, 323.1 K
  solubility (mole fraction): 0.00646
In n-pentyl acetate, 283.1 K
  solubility (mole fraction): 0.000316
In n-pentyl acetate, 288.1 K
  solubility (mole fraction): 0.000391
In n-pentyl acetate, 293.1 K
  solubility (mole fraction): 0.000525
In n-pentyl acetate, 298.1 K
  solubility (mole fraction): 0.000678
In n-pentyl acetate, 303.1 K
  solubility (mole fraction): 0.000888
In n-pentyl acetate, 308.1 K
  solubility (mole fraction): 0.00114
In n-pentyl acetate, 313.1 K
  solubility (mole fraction): 0.0015
In n-pentyl acetate, 318.1 K
  solubility (mole fraction): 0.00194
In n-pentyl acetate, 323.1 K
  solubility (mole fraction): 0.0025
In n-propanol, 283.1 K
  solubility (mole fraction): 0.000721
In n-propanol, 288.1 K
  solubility (mole fraction): 0.000943
In n-propanol, 293.1 K
  solubility (mole fraction): 0.0012
In n-propanol, 298.1 K
  solubility (mole fraction): 0.00157
In n-propanol, 303.1 K
  solubility (mole fraction): 0.00207
In n-propanol, 308.1 K
  solubility (mole fraction): 0.00277
In n-propanol, 313.1 K
  solubility (mole fraction): 0.00369
In n-propanol, 318.1 K
  solubility (mole fraction): 0.00501
In n-propanol, 323.1 K
  solubility (mole fraction): 0.00656
In n-propyl acetate, 283.1 K
  solubility (mole fraction): 0.000351
In n-propyl acetate, 288.1 K
  solubility (mole fraction): 0.000469
In n-propyl acetate, 293.1 K
  solubility (mole fraction): 0.000613
In n-propyl acetate, 298.1 K
  solubility (mole fraction): 0.000803
In n-propyl acetate, 303.1 K
  solubility (mole fraction): 0.00103
In n-propyl acetate, 308.1 K
  solubility (mole fraction): 0.00132
In n-propyl acetate, 313.1 K
  solubility (mole fraction): 0.00173
In n-propyl acetate, 318.1 K
  solubility (mole fraction): 0.00222
In n-propyl acetate, 323.1 K
  solubility (mole fraction): 0.00293
